From PubChem BioAssay (NCI)
Several values for one entry are separate records, joined by “and”; a condition that tells them apart may be missing. Equal values may be shown once.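 Where inhibition never reached the appropriate level, the endpoint shown equals the highest concentration tested. Otherwise, values were interpolated linearly from a five-concentration, 48-hour dose response in 96-well plates. GI50 is the concentration that inhibits growth by half. Definition used: TGI = concentration required for complete inhibition of growth.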

Experiments:
Assay in all cases: NCI-60 cell line screen, 48 h
SF-539 CNS = test system: SF-539 CNS
NCI-H23 lung = test system: NCI-H23 lung
HOP-92 NSCLC = test system: HOP-92 NSCLC
ACHN renal = test system: ACHN renal
SN12C renal = test system: SN12C renal
OVCAR-8 ovarian = test system: OVCAR-8 ovarian
HCC-2998 colon = test system: HCC-2998 colon
CCRF-CEM leukemia = test system: CCRF-CEM leukemia
NCI-H522 lung = test system: NCI-H522 lung
LOX IMVI melanoma = test system: LOX IMVI melanoma

| SMILES | GI50 (SF-539 CNS) [µM] | TGI (SF-539 CNS) | GI50 (NCI-H23 lung) | TGI (NCI-H23 lung) | GI50 (HOP-92 NSCLC) | TGI (HOP-92 NSCLC) | GI50 (ACHN renal) [µM] | TGI (ACHN renal) [µM] | GI50 (SN12C renal) [µM] | TGI (SN12C renal) [µM] | GI50 (OVCAR-8 ovarian) [µM] | TGI (OVCAR-8 ovarian) [µM] | GI50 (HCC-2998 colon) [µM] | TGI (HCC-2998 colon) [µM] | GI50 (CCRF-CEM leukemia) [nM] | TGI (CCRF-CEM leukemia) [µM] | GI50 (NCI-H522 lung) [µM] | TGI (NCI-H522 lung) | GI50 (LOX IMVI melanoma) [µM] | TGI (LOX IMVI melanoma) [µM] |
| --- | --- | --- | --- | --- | --- | --- | --- | --- | --- | --- | --- | --- | --- | --- | --- | --- | --- | --- | --- | --- |
| C[C@]12CCC3[C@@H](C[C@@H]4SC(Nc5ccccc5)=N[C@@]45CC(=O)CC[C@]35C)[C@@H]1CCC2=O (stereo partly specified) | 3.04 | 13.3 µM | 18.1 µM | > 100 µM | 18.7 µM | 67.9 µM | 7.81 | 29.5 | 3.81 | 25.3 | 7.61 | > 100 | 18.2 | 44.8 | 2840 | > 100 | 6.6 | 23.6 µM | 3.22 | 10.8 |
| CCN1C2=NC(=O)N(C)C(=O)C2(Cl)C(C(SC)S(=O)(=O)c2ccc(C)cc2)c2ccccc21 (stereo unspecified) | – | > 100 µM | – | 50.4 µM | – | 71.3 µM | – | – | – | > 100 | – | 50.4 | – | > 100 | – | 25.7 | – | 25.9 µM | – | > 100 |
| CC(C)N(C(=O)C12C3C4C5(C#N)C3C1(I)C5C42I)C(C)C (stereo unspecified) | – | > 100 µM | – | > 100 µM | – | > 100 µM | – | > 100 | – | > 100 | – | > 100 | – | > 100 | – | > 61.8 | – | > 100 µM | – | > 66.1 |
| O=C(O)c1ccc2c(c1)Cc1cc([N+](=O)[O-])ccc1-2 | – | > 100 µM | – | > 100 µM | – | > 100 µM | – | > 100 | – | > 100 | – | > 100 | – | > 100 | – | > 100 | – | > 100 µM | – | > 100 |
| O=C1C=C[C@@]23CC1C(O)C[C@H]2C=Cc1ccccc13 (stereo partly specified) | – | > 100 µM | – | – | – | > 100 µM | – | > 100 | – | > 100 | – | > 100 | – | > 100 | – | > 100 | – | > 100 µM | – | > 100 |
| O=c1cc(C(F)(F)F)c2cc3c(cc2o1)NCCC3 | – | > 100 µM | – | > 100 µM | – | > 100 µM | – | > 100 | – | > 100 | – | > 100 | – | > 100 | – | > 100 | – | > 100 µM | – | > 100 |
| CCOP(=O)(OCC)C(NC(c1ccccc1)c1ccccc1)c1ccccc1 (stereo unspecified) | 17.2 | 33.1 µM | 14.4 µM | 28.7 µM | 15.6 µM | 31.9 µM | 13.2 | 26.3 | 16.8 | 32.6 | 16.3 | 33.6 | 14.8 | 29.5 | 18200 | 58.8 | 17.1 | 48 µM | 14 | 28.5 |
| Cc1ccc(NC(=O)CC2C(=O)Nc3ccccc3S2=O)cc1C (stereo unspecified) | – | 47.5 µM | – | > 100 µM | – | 74.2 µM | – | > 100 | – | > 100 | – | > 100 | – | > 100 | – | > 100 | – | > 100 µM | – | > 100 |
| C=C1C(=O)O[C@H]2[C@H]1CC/C(COC(=O)NCc1cc3ccccc3[nH]1)=C\CC[C@@]1(C)O[C@@H]21 | 1.73 | 3.26 µM | 2.16 µM | 5.18 µM | 1.29 µM | 2.98 µM | 1.38 | 2.75 | 1.45 | 3.17 | 2.02 | 5.41 | 2.02 | 3.67 | 443 | 3.36 | 1.5 | 3.29 µM | 1.26 | 2.61 |
| CC[C@]1(O)CC2CN(CCc3c([nH]c4ccccc34)[C@@](C(=O)OC)(c3cc4c(cc3OC)N(C)[C@H]3[C@@](O)(C(=O)OC)[C@H](OC(C)=O)[C@]5(CC)C=CCN6CC[C@]43[C@@H]65)C2)C1 (stereo partly specified) | < 0.005 | 0.293 µM | < 0.005 µM | 26.7 µM | < 0.005 µM | 0.119 µM | 0.076 | > 50 | < 0.005 | > 37.3 | < 0.005 | > 34.6 | < 0.005 | 0.0195 | < 5 | 18.5 | < 0.005 | 0.00536 µM | < 0.005 | 8.01 |
| O=c1c2ccccc2c2ccccc2c(=O)n1-c1cc2c3ccccc3ccc2c2ccccc12 | – | > 100 µM | – | > 100 µM | – | > 100 µM | – | > 100 | – | > 100 | – | > 100 | – | 89.1 | – | – | – | > 100 µM | – | > 100 |
| CC1OC(n2ncc(=O)[nH]c2=O)C=CC1=O (stereo unspecified) | – | > 100 µM and 47.9 µM | 34.7 µM and 16.5 µM | > 100 µM and 37.3 µM | 71.1 µM and 32.8 µM | > 100 µM and 71.9 µM | – | > 100 | – | > 100 | – | > 100 | – | > 100 | – | – | – | 37.6 µM and 36.2 µM | – | > 100 |
| CC(C)C(=O)/C=C/c1ccccc1 | – | > 100 µM | – | > 100 µM | – | > 100 µM | – | > 100 | – | > 100 | – | – | – | > 100 | – | 67.5 | – | > 100 µM | – | > 100 |
| OC1(C(O)(c2ccc(-c3ccccc3)cc2)c2ccc(-c3ccccc3)cc2)CCCCC1 | – | > 100 µM | – | > 100 µM | – | > 100 µM | – | > 100 | – | > 100 | – | > 100 | – | > 100 | – | – | – | > 100 µM | – | > 100 |
